# Numbers after ± are expanded uncertainties.
# Assay: molar heat capacity at constant pressure
# Conditions: 101.33 kPa, Crystal 1, DSC
structure (smiles),measurement,setting,value
O=[N+]([O-])[O-].O=[N+]([O-])[O-].[Ca+2] [calcium nitrate],molar heat capacity at constant pressure,361.78 K,152.56 ± 11 J/K/mol
same,molar heat capacity at constant pressure,362.18 K,160.28 ± 11 J/K/mol
same,molar heat capacity at constant pressure,362.78 K,152.75 ± 11 J/K/mol
same,molar heat capacity at constant pressure,363.18 K,160.44 ± 11 J/K/mol
same,molar heat capacity at constant pressure,363.78 K,152.95 ± 11 J/K/mol
same,molar heat capacity at constant pressure,364.18 K,160.63 ± 11 J/K/mol
same,molar heat capacity at constant pressure,364.78 K,153.15 ± 11 J/K/mol
same,molar heat capacity at constant pressure,365.18 K,160.81 ± 11 J/K/mol
same,molar heat capacity at constant pressure,365.78 K,153.35 ± 11 J/K/mol
same,molar heat capacity at constant pressure,366.18 K,161.02 ± 11 J/K/mol
same,molar heat capacity at constant pressure,366.78 K,153.54 ± 11 J/K/mol
same,molar heat capacity at constant pressure,367.18 K,161.17 ± 11 J/K/mol
same,molar heat capacity at constant pressure,367.78 K,153.74 ± 11 J/K/mol
same,molar heat capacity at constant pressure,368.18 K,161.33 ± 11 J/K/mol
same,molar heat capacity at constant pressure,368.78 K,153.94 ± 11 J/K/mol
same,molar heat capacity at constant pressure,369.18 K,161.53 ± 11 J/K/mol
same,molar heat capacity at constant pressure,369.78 K,154.14 ± 11 J/K/mol
same,molar heat capacity at constant pressure,370.18 K,161.7 ± 11 J/K/mol
same,molar heat capacity at constant pressure,370.78 K,154.34 ± 11 J/K/mol
same,molar heat capacity at constant pressure,371.18 K,161.95 ± 11 J/K/mol
same,molar heat capacity at constant pressure,371.78 K,154.54 ± 11 J/K/mol
same,molar heat capacity at constant pressure,372.18 K,162.09 ± 11 J/K/mol
same,molar heat capacity at constant pressure,372.78 K,154.75 ± 11 J/K/mol
same,molar heat capacity at constant pressure,373.18 K,162.29 ± 11 J/K/mol
same,molar heat capacity at constant pressure,373.78 K,154.94 ± 11 J/K/mol
same,molar heat capacity at constant pressure,374.18 K,162.35 ± 11 J/K/mol
same,molar heat capacity at constant pressure,374.78 K,155.12 ± 11 J/K/mol
same,molar heat capacity at constant pressure,375.18 K,162.54 ± 11 J/K/mol
same,molar heat capacity at constant pressure,375.78 K,155.3 ± 11 J/K/mol
same,molar heat capacity at constant pressure,376.18 K,162.75 ± 11 J/K/mol
same,molar heat capacity at constant pressure,376.78 K,155.47 ± 11 J/K/mol
same,molar heat capacity at constant pressure,377.18 K,162.97 ± 11 J/K/mol
same,molar heat capacity at constant pressure,377.78 K,155.64 ± 11 J/K/mol
same,molar heat capacity at constant pressure,378.18 K,163.18 ± 11 J/K/mol
same,molar heat capacity at constant pressure,378.78 K,155.81 ± 11 J/K/mol
same,molar heat capacity at constant pressure,379.18 K,163.4 ± 11 J/K/mol
same,molar heat capacity at constant pressure,379.78 K,155.97 ± 11 J/K/mol
same,molar heat capacity at constant pressure,380.18 K,163.62 ± 11 J/K/mol
same,molar heat capacity at constant pressure,380.78 K,156.14 ± 11 J/K/mol
same,molar heat capacity at constant pressure,381.18 K,163.84 ± 11 J/K/mol
same,molar heat capacity at constant pressure,381.78 K,156.31 ± 11 J/K/mol
same,molar heat capacity at constant pressure,382.18 K,164.05 ± 11 J/K/mol
same,molar heat capacity at constant pressure,382.78 K,156.48 ± 11 J/K/mol
same,molar heat capacity at constant pressure,383.18 K,164.32 ± 11 J/K/mol
same,molar heat capacity at constant pressure,383.78 K,156.65 ± 11 J/K/mol
same,molar heat capacity at constant pressure,384.18 K,164.57 ± 11 J/K/mol
same,molar heat capacity at constant pressure,384.78 K,156.82 ± 11 J/K/mol
same,molar heat capacity at constant pressure,385.18 K,164.8 ± 12 J/K/mol
same,molar heat capacity at constant pressure,385.78 K,156.99 ± 11 J/K/mol
same,molar heat capacity at constant pressure,386.18 K,164.98 ± 12 J/K/mol
same,molar heat capacity at constant pressure,386.78 K,157.16 ± 11 J/K/mol
same,molar heat capacity at constant pressure,387.18 K,165.18 ± 12 J/K/mol
same,molar heat capacity at constant pressure,387.78 K,157.33 ± 11 J/K/mol
same,molar heat capacity at constant pressure,388.18 K,165.31 ± 12 J/K/mol
same,molar heat capacity at constant pressure,388.78 K,157.5 ± 11 J/K/mol
same,molar heat capacity at constant pressure,389.18 K,165.47 ± 12 J/K/mol
same,molar heat capacity at constant pressure,389.78 K,157.67 ± 11 J/K/mol
same,molar heat capacity at constant pressure,390.18 K,165.67 ± 12 J/K/mol
same,molar heat capacity at constant pressure,390.78 K,157.83 ± 11 J/K/mol
same,molar heat capacity at constant pressure,391.18 K,165.88 ± 12 J/K/mol
same,molar heat capacity at constant pressure,391.78 K,158 ± 11 J/K/mol
same,molar heat capacity at constant pressure,392.18 K,166.07 ± 12 J/K/mol
same,molar heat capacity at constant pressure,392.78 K,158.17 ± 11 J/K/mol
same,molar heat capacity at constant pressure,393.18 K,166.27 ± 12 J/K/mol
same,molar heat capacity at constant pressure,393.78 K,158.34 ± 11 J/K/mol
same,molar heat capacity at constant pressure,394.18 K,166.46 ± 12 J/K/mol
same,molar heat capacity at constant pressure,394.78 K,158.51 ± 11 J/K/mol
same,molar heat capacity at constant pressure,395.18 K,166.6 ± 12 J/K/mol
same,molar heat capacity at constant pressure,395.78 K,158.68 ± 11 J/K/mol
same,molar heat capacity at constant pressure,396.18 K,166.74 ± 12 J/K/mol
same,molar heat capacity at constant pressure,396.78 K,158.86 ± 11 J/K/mol
same,molar heat capacity at constant pressure,397.18 K,166.86 ± 12 J/K/mol
same,molar heat capacity at constant pressure,397.78 K,159.03 ± 11 J/K/mol
same,molar heat capacity at constant pressure,398.18 K,167.03 ± 12 J/K/mol
same,molar heat capacity at constant pressure,398.78 K,159.2 ± 11 J/K/mol
same,molar heat capacity at constant pressure,399.18 K,167.15 ± 12 J/K/mol
same,molar heat capacity at constant pressure,399.78 K,159.38 ± 11 J/K/mol
same,molar heat capacity at constant pressure,400.18 K,167.33 ± 12 J/K/mol
same,molar heat capacity at constant pressure,400.78 K,159.54 ± 11 J/K/mol
same,molar heat capacity at constant pressure,401.18 K,167.43 ± 12 J/K/mol
same,molar heat capacity at constant pressure,401.78 K,159.71 ± 11 J/K/mol
same,molar heat capacity at constant pressure,402.18 K,167.63 ± 12 J/K/mol
same,molar heat capacity at constant pressure,402.78 K,159.87 ± 11 J/K/mol
same,molar heat capacity at constant pressure,403 K,160.69 ± 11 J/K/mol
same,molar heat capacity at constant pressure,403.18 K,167.77 ± 12 J/K/mol
same,molar heat capacity at constant pressure,403.78 K,160.04 ± 11 J/K/mol
same,molar heat capacity at constant pressure,404 K,160.78 ± 11 J/K/mol
same,molar heat capacity at constant pressure,404.18 K,167.98 ± 12 J/K/mol
same,molar heat capacity at constant pressure,404.78 K,160.23 ± 11 J/K/mol
same,molar heat capacity at constant pressure,405 K,161.04 ± 11 J/K/mol
same,molar heat capacity at constant pressure,405.18 K,168.21 ± 12 J/K/mol
same,molar heat capacity at constant pressure,405.78 K,160.41 ± 11 J/K/mol
same,molar heat capacity at constant pressure,406 K,160.25 ± 11 J/K/mol
same,molar heat capacity at constant pressure,406.18 K,168.41 ± 12 J/K/mol
same,molar heat capacity at constant pressure,406.78 K,160.58 ± 11 J/K/mol
same,molar heat capacity at constant pressure,407 K,160.32 ± 11 J/K/mol
same,molar heat capacity at constant pressure,407.18 K,168.63 ± 12 J/K/mol
same,molar heat capacity at constant pressure,407.78 K,160.76 ± 11 J/K/mol
same,molar heat capacity at constant pressure,408 K,160.3 ± 11 J/K/mol
same,molar heat capacity at constant pressure,408.18 K,168.88 ± 12 J/K/mol
same,molar heat capacity at constant pressure,408.78 K,160.93 ± 11 J/K/mol
same,molar heat capacity at constant pressure,409 K,160.49 ± 11 J/K/mol
same,molar heat capacity at constant pressure,409.18 K,169.09 ± 12 J/K/mol
same,molar heat capacity at constant pressure,409.78 K,161.1 ± 11 J/K/mol
same,molar heat capacity at constant pressure,410 K,161.08 ± 11 J/K/mol
same,molar heat capacity at constant pressure,410.18 K,169.35 ± 12 J/K/mol
same,molar heat capacity at constant pressure,410.78 K,161.27 ± 11 J/K/mol
same,molar heat capacity at constant pressure,411 K,160.76 ± 11 J/K/mol
same,molar heat capacity at constant pressure,411.18 K,169.49 ± 12 J/K/mol
same,molar heat capacity at constant pressure,411.78 K,161.44 ± 11 J/K/mol
same,molar heat capacity at constant pressure,412 K,160.92 ± 11 J/K/mol
same,molar heat capacity at constant pressure,412.18 K,169.72 ± 12 J/K/mol
same,molar heat capacity at constant pressure,412.78 K,161.61 ± 11 J/K/mol
same,molar heat capacity at constant pressure,413 K,161.04 ± 11 J/K/mol
same,molar heat capacity at constant pressure,413.18 K,169.84 ± 12 J/K/mol
same,molar heat capacity at constant pressure,413.78 K,161.77 ± 11 J/K/mol
same,molar heat capacity at constant pressure,414 K,161.26 ± 11 J/K/mol
same,molar heat capacity at constant pressure,414.18 K,170.06 ± 12 J/K/mol
same,molar heat capacity at constant pressure,414.78 K,161.94 ± 11 J/K/mol
same,molar heat capacity at constant pressure,415 K,161.41 ± 11 J/K/mol
same,molar heat capacity at constant pressure,415.18 K,170.21 ± 12 J/K/mol
same,molar heat capacity at constant pressure,415.78 K,162.11 ± 11 J/K/mol
same,molar heat capacity at constant pressure,416 K,161.42 ± 11 J/K/mol
same,molar heat capacity at constant pressure,416.18 K,170.45 ± 12 J/K/mol
same,molar heat capacity at constant pressure,416.78 K,162.27 ± 11 J/K/mol
same,molar heat capacity at constant pressure,417 K,161.52 ± 11 J/K/mol
same,molar heat capacity at constant pressure,417.18 K,170.58 ± 12 J/K/mol
same,molar heat capacity at constant pressure,417.78 K,162.43 ± 11 J/K/mol

# Reference: the NIST ThermoML archive (doi:10.1016/j.jct.2019.03.007)
